Measured values taken from ChEMBL document CHEMBL2429853, “Gardovatine, a novel Strychnos-Strychnos bisindole alkaloid with cytotoxicity from Gardneria oveta” (Bioorg Med Chem Lett, 2013).

What was measured:
Assay type in all cases: functional, cell-based
SW480 = assay: Cytotoxicity against human SW480 after 48 hrs by MTT assay; conditions: SW480, 48 h
A549 = assay: Cytotoxicity against human A549 after 48 hrs by MTT assay; conditions: A549, 48 h
HL-60 = assay: Cytotoxicity against human HL60 after 48 hrs by MTT assay; conditions: HL-60, 48 h
MCF7 = assay: Cytotoxicity against human MCF7 after 48 hrs by MTT assay; conditions: MCF7, 48 h
SMMC-7721 = assay: Cytotoxicity against human SMMC7721 after 48 hrs by MTT assay; conditions: SMMC-7721, 48 h

`C/C=C1/CN2CCc3c4n(c5ccccc35)/C=C3/[C@H]5C[C@@H]6N(CC[C@@]67c6ccccc6N(/C=C\4[C@H]1CC2=O)[C@@H]37)C/C5=C/C` [(15S,19E,2'S,3'S,7'R,15'S,19'E)-GARDOVATINE] was tested, and the IC50 (SW480) was 16.1 µM, the IC50 (A549) was 14.2 µM and the IC50 (HL-60) was 9.8 µM. It also gave an IC50 (MCF7) of 13.9 µM and an IC50 (SMMC-7721) of 10.5 µM.
`C/C=C1/CN2CC[C@]34c5ccccc5N5[C@H]3[C@H]([C@H]3O[C@]6([C@@H]7N3c3ccccc3[C@@]73CCN7C/C(=C/C)[C@@H]6C[C@H]73)[C@H]5OC)[C@H]1C[C@H]24` [DIVARINE] gave an IC50 (SW480) of 1.6 µM, an IC50 (A549) of 3.2 µM and an IC50 (HL-60) of 1.2 µM. It also gave an IC50 (MCF7) of 3 µM and an IC50 (SMMC-7721) of 3.2 µM.
